These results are taken from patent EP1792902A1, “Processes for preparation of 5-(6-quinazolinyl)-furan-2-carbaldehydes” (priority 2000, dated 2002).

The nature of data set [1]: Slurry equilibration method, relative physical stability of anhydrate and monohydrate crystal forms. To be noted: for Equilibrium Form: 25°C, pXRD.
Data set [2] deals with EGFr isolated from solubilised A431 cell membranes (Homo sapiens, UniProt P00533). The data set can be described thus: Substrate phosphorylation assay, EGFR tyrosine kinase inhibition. The data set is classed as biochemical. The conditions noted are these: tested in buffered solution. The text has this:
(§1) The substrate phosphorylation assays use baculovirus expressed, recombinant constructs of the intracellular domains of c-erbB-2 and c-erbB-4 that are constitutively active and EGFr isolated from solubilised A431 cell membranes. The method measures the ability of the isolated enzymes to catalyse the transfer of the g-phosphate from ATP onto tyrosine residues in a biotinylated synthetic peptide (Biotin-[…]. Substrate phosphorylation was detected following either of the following two procedures: • a.) c-ErbB-2, c-ErbB4 or EGFr were incubated for 30 minutes, at room temperature, with 10mM MnCl2, […], and test compound (diluted from a 5mM stock in DMSO, final DMSO concentration is 2%) in 40mM HEPES buffer, pH 7.4. The reaction was stopped by the addition of EDTA (final concentration 0.15mM) and a sample was transferred to a streptavidin-coated 96-well plate. The plate was washed and the level of phosphotyrosine on the peptide was determined using a Europium-labelled antiphosphotyrosine antibody and quantified with a time-resolved fluorescence technique. • b.) ErbB2 was incubated for 50 minutes at room temperature with 15 mM MnCl2, 2 mM ATP, 0.25 mCi [g-^33P] […] The SPA signal was measured using a Packard Topcount 96-well plate scintillation counter (Packard Instrument Co., Meriden, CT).

For a further data set, the target named is T1, c-erbB-2 (Homo sapiens, UniProt P04626).
T1 construct: recombinant constructs of the intracellular domains of c-erbB-2 and c-erbB-4 that are constitutively active; made in house
T1 sequence (P04626 676-1255 limits assumed): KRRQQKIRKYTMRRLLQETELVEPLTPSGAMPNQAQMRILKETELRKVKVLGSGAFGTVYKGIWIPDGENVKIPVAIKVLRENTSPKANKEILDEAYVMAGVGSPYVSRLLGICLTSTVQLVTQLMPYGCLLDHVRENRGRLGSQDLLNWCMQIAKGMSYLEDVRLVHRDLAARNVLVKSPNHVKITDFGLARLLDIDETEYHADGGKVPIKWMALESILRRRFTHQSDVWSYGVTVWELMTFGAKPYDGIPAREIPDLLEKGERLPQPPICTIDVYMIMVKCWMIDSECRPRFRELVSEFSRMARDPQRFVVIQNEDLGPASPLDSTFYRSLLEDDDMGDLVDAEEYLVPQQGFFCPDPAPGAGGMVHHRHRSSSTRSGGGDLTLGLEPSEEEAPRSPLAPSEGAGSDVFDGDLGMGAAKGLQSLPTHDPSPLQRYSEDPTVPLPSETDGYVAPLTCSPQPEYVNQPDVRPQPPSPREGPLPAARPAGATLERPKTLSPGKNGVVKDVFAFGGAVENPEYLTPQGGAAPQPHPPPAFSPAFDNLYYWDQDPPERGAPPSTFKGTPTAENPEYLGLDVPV
The data set is described as follows: Substrate phosphorylation assay, erbB2 tyrosine kinase inhibition. The data set is classed as biochemical. The conditions noted are these: tested in buffered solution.
Text: as §1

In the next data set the target is T2, c-erbB-4 (Homo sapiens, UniProt Q15303).
T2 construct: recombinant constructs of the intracellular domains of c-erbB-2 and c-erbB-4 that are constitutively active; made in house
T2 sequence (Q15303 676-1308 limits assumed): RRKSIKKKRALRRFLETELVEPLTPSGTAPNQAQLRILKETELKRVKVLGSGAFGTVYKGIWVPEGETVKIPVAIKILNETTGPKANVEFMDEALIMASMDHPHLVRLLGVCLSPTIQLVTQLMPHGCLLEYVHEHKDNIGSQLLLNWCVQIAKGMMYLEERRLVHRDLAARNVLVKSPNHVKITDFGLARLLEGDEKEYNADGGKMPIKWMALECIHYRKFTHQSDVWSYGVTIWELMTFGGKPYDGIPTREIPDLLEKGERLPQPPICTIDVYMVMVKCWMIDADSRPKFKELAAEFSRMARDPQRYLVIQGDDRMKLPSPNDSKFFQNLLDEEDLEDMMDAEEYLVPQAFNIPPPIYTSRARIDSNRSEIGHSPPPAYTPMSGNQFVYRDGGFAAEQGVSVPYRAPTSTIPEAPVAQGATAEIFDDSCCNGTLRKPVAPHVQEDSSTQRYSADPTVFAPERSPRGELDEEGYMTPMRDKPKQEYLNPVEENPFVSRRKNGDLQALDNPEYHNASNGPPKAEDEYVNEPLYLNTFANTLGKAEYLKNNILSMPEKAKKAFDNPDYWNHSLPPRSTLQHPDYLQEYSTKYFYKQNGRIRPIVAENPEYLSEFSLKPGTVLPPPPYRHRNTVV
The data set can be described thus: Substrate phosphorylation assay, erbB4 tyrosine kinase inhibition. The conditions noted are these: tested in buffered solution. The data set is classed as biochemical.
Text: as §1

In data set [3] the test system is gastric tumor (N87) cell lines. The data set can be described thus: Methylene Blue Growth Inhibition Assay, N87. The conditions noted are these: Homo sapiens, 72 h; 3 days incubation, methylene blue staining. The data set is classed as cell-based. On the procedure: (§2) Human breast (BT474), head and neck (HN5) and gastric tumor (N87) cell lines and human foreskin Fibroblasts (HFF) were cultured in low glucose DMEM (Life Technologies 12320-032) containing 10% fetal bovine serum (FBS) at 37°C in a humidified 10% CO2, 90% air incubator. The SV40 transformed human mammary epithelial cell line HB4a was transfected with either human H-ras cDNA (HB4a r4.2) or the human c-erbB2 cDNA (HB4a c5.2). The HB4a clones were cultured in RPMI containing 10% FBS, insulin (5 µg/ml), hydrocortisone (5 µg/ml), supplemented with the selection agent hygromycin B (50µg/ml). Cells were harvested using trypsin/EDTA, counted using a haemocytometer, and plated in […] of the appropriate media, at the following densities, in a 96-well tissue culture plate (Falcon 3075): BT474 10,000 cells/well, HN5 3,000 cells/well, N87 10,000 cells/well, HB4a c5.2 3,000 cells/well, HB4a r4.2 3,000 cells/well, HFF 2500 cells/well. The next day, compounds were diluted in DMEM containing […] gentamicin, at twice the final required concentration, from 10mM stock solutions in DMSO. […]/well of these dilutions were added to the 100ml of media currently on the cell plates. Medium containing 0.6% DMSO was added to control wells. Compounds diluted in DMEM were added to all cell lines, including the HB4a r4.2 and HB4a c5.2 cell lines. The final concentration of DMSO in all wells was 0.3%. Cells were incubated at 37°C, 10% CO2 for 3 days. Medium was removed by aspiration. Cell biomass was estimated by staining cells with 100µl per well methylene blue (Sigma M9140, 0.5% in 50:50 ethanol:water), and incubation at room temperature for at least 30 minutes. Stain was removed, and the plates rinsed under a gentle stream of water, and air-dried. To release stain from the cells 100µl of solubilization solution was added (1% N-lauroyl sarcosine, Sodium salt, Sigma L5125, in PBS), and plates were shaken gently for about 30 minutes. Optical density at 620 nm was measured on a microplate reader. Percent inhibition of cell growth was calculated relative to vehicle treated control wells. […]

The test system of the next data set is breast (BT474). The data set is described as follows: Methylene Blue Growth Inhibition Assay, BT474. The conditions noted are these: Homo sapiens, BT-474, 72 h; 3 days incubation, methylene blue staining; read-out: BT474 IC50 uM Cell. The data set is classed as cell-based. On the procedure: as §2
In another data set the test system is head and neck (HN5). The data set is described as follows: Methylene Blue Growth Inhibition Assay, HN5. The data set is classed as cell-based. To be noted: Homo sapiens, 72 h; 3 days incubation, methylene blue staining; read-out: HN5 IC50 uM Cell. On the procedure: as §2
The nature of data set [4]: Moisture sorption testing. The data set is classed as physicochemical. To be noted: at the humidities to which it might be exposed (e.g., 20-75% relative humidity (RH)). On the procedure:
Approximately 12 mg of N-{3-Chloro-4-[(3-fluorobenzyl) oxy]phenyl}-6-[5-({[2-(methanesulphonyl)ethyl] amino}methyl)-2-furyl]-4-quinazolinamine ditosylate monohydrate salt prepared according to Example 10 was weighed into a sample pan of a moisture sorption apparatus (model number SGA-100, made by VTI). The sample was dried at 60°C under a nitrogen stream until the weight loss was less than 0.015% in 5 minutes. The relative humidity (RH) was then increased (adsorption) to 5, 15, 25, 35, 45, 55, 65, 75, 85 and 95% - at each step, equilibrium was defined as a weight change of less than 0.015% in 5 minutes. The relative humidity was then decreased (desorption) to 90, 80, 70, 60, 50, 40, 30, and 20% with the same equilibrium condition. The sorption curve (y-axis: Weight - % change vs. x-axis: % RH) is depicted in Figure 3(a).
Approximately 15 mg of N-{3-Chloro-4-[(3-fluorobenzyl) oxy]phenyl}-6-[5-({[2-(methanesulphonyl)ethyl]amino}methyl)-2-furyl]-4-quinazolinamine di-HCl salt was weighed into a sample pan of a moisture sorption apparatus (model number SGA-100 , made by VTI). The sample was dried at 60°C under a nitrogen stream until the weight loss was less than 0.015% in 5 minutes. The relative humidity was then increased (adsorption) to 5, 15, 25, 35, 45, 55, 65, 75, 85 and 95% - at each step, equilibrium was defined as a weight change of less than 0.015% in 5 minutes. […]

pIC50: −log10 of the molar value. Bounds are passed on as bounds.

Sequence of EGFr isolated from solubilised A431 cell membranes (P00533 25-1210): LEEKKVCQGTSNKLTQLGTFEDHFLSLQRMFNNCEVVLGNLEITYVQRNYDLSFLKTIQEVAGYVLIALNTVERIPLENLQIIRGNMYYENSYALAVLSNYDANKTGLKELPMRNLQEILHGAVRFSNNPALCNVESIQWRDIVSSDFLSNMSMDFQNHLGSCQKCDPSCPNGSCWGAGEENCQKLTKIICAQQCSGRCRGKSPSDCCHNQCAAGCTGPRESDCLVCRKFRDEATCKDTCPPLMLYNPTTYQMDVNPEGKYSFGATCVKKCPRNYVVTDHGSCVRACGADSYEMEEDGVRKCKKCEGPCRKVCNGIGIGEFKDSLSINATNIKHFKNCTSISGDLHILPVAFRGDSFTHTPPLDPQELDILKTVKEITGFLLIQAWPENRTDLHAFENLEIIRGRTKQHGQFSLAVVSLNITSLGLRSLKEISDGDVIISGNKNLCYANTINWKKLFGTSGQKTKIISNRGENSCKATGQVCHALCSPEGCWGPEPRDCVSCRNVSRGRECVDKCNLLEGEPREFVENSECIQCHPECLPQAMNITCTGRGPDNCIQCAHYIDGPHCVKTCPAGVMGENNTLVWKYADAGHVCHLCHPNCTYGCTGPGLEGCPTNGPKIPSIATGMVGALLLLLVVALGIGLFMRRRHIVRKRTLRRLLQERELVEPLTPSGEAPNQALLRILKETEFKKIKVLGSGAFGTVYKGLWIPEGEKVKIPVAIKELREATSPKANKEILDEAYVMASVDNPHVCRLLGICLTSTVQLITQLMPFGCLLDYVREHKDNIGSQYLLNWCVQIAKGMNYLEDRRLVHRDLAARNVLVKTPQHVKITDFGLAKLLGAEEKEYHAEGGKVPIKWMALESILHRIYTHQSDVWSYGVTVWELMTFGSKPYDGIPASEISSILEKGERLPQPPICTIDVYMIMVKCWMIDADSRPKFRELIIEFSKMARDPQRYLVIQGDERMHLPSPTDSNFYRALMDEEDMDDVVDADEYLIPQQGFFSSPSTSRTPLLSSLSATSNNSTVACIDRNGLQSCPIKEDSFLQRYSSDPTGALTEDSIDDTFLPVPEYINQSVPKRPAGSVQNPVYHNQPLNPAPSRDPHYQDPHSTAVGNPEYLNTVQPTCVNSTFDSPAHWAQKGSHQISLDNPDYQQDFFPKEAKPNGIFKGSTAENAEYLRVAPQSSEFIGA

As to `CS(=O)(=O)CCNCc1ccc(-c2ccc3ncnc(Nc4ccc(OCc5cccc(F)c5)c(Cl)c4)c3c2)o1.Cc1ccc(S(=O)(=O)O)cc1.Cc1ccc(S(=O)(=O)O)cc1` [N-{3-Chloro-4-[(3-fluorobenzyl)oxy]phenyl}-6-[5-({[2-(methanesulphonyl)ethyl]amino}methyl)-2-furyl]-4-quinazolinamine ditosylate], the “Equilibrium Form” value in data set [1] (RH 0 %, Water Volume 0 %, Water Mole Fraction 0.00, 1:1 anhydrate/monohydrate slurry in MeOH/H2O) was “Anhydrate”; in data set [1] (RH 7 %, Water Volume 2 %, Water Mole Fraction 0.04, 1:1 anhydrate/monohydrate slurry in MeOH/H2O), “Anhydrate”; in data set [1] (RH 15 %, Water Volume 5 %, Water Mole Fraction 0.11, 1:1 anhydrate/monohydrate slurry in MeOH/H2O), “Monohydrate”; in data set [1] (RH 26 %, Water Volume 10 %, Water Mole Fraction 0.20, 1:1 anhydrate/monohydrate slurry in MeOH/H2O) it was “Monohydrate”; in data set [1] (RH 43 %, Water Volume 20 %, Water Mole Fraction 0.36, 1:1 anhydrate/monohydrate slurry in MeOH/H2O) it was “Monohydrate”; in data set [1] (RH 66 %, Water Volume 40 %, Water Mole Fraction 0.60, 1:1 anhydrate/monohydrate slurry in MeOH/H2O), “Monohydrate”. The “Equilibrium Form” value in data set [1] (RH 80 %, Water Volume 60 %, Water Mole Fraction 0.77, 1:1 anhydrate/monohydrate slurry in MeOH/H2O) is recorded as “Monohydrate”; in data set [1] (RH 91 %, Water Volume 80 %, Water Mole Fraction 0.90, 1:1 anhydrate/monohydrate slurry in MeOH/H2O), “Monohydrate”; in data set [1] (RH 95 %, Water Volume 90 %, Water Mole Fraction 0.95, 1:1 anhydrate/monohydrate slurry in MeOH/H2O), “Monohydrate”; in data set [1] (RH 100 %, Water Volume 100 %, Water Mole Fraction 1.00, 1:1 anhydrate/monohydrate slurry), “Monohydrate”.

Take `CS(=O)(=O)CCNCc1nc(-c2ccc3ncnc(Nc4ccc(OCc5cccc(F)c5)c(Cl)c4)c3c2)cs1` [Example 13, (4-(3-Fluoro-benzyloxy)-3-chlorophenyl)-(6-(2-((2-methanesulphonyl-ethylamino)-methyl)-thiazol-4-yl)quinazolin-4-yl)-amine ditosylate]: the pIC50 in data set [2] is over 7.00; at c-erbB-2, over 7.00; against c-erbB-4, 6.00 to 7.00. For the same compound, the IC50 in data set [3] is under 5 µM; in the data set on breast (BT474), under 5 µM; with head and neck (HN5), under 5 µM.

As to `CS(=O)(=O)CCNCc1ccc(-c2ccc3ncnc(Nc4ccc(OCc5cccc(F)c5)c(Br)c4)c3c2)o1` [Example 12, (4-(3-Fluoro-benzyloxy)-3-bromophenyl)-(6-(5-((2-methanesulphonyl-ethylamino)-methyl)-furan-2 yl)quinazolin-4 yl)-amine ditosylate], the figures for the pIC50 (in data set [2]; on c-erbB-2; at c-erbB-4) were over 7.00, over 7.00 and 5.00 to 6.00, respectively. The IC50 is under 5 µM in data set [3]; under 5 µM in the data set on breast (BT474); under 5 µM in the data set with head and neck (HN5).

Consider `CS(=O)(=O)CCNCc1ccc(-c2ccc3ncnc(Nc4ccc(OCc5cccc(F)c5)c(Cl)c4)c3c2)o1` [Example 8, N-{3-Chloro-4-[(3-fluorobenzyl)oxy]phenyl}-6-[5({[2-(methanesulphonyl)ethyl]amino}methyl)-2-furyl]-4-quinazolinamine ditosylate anhydrate], for which the half-maximal inhibitory concentration (IC50) in data set [3] was under 5 µM; in the data set on breast (BT474) it was under 5 µM; with head and neck (HN5) it was under 5 µM.

For the compound `CS(=O)(=O)CCNCc1ccc(-c2ccc3ncnc(Nc4ccc(OCc5cccc(F)c5)c(Cl)c4)c3c2)o1.Cl.Cl` [di-HCl salt, N-{3-Chloro-4-[(3-fluorobenzyl)oxy]phenyl}-6-[5-({[2-(methanesulphonyl)ethyl]amino}methyl)-2-furyl]-4-quinazolinamine di-HCl salt], in data set [4], the water sorption entry is given as “sorbs very large amounts of water”.

For `CS(=O)(=O)CCNCc1ccc(-c2ccc3ncnc(Nc4ccc(OCc5cccc(F)c5)c(Cl)c4)c3c2)o1` [Example 10, N-{3-Chloro-4-[(3-f/uorobenzyl)oxy]phenyl}-6-[5-({[2-(methanesulphonyl)ethyl]amino}methyl)-2-furyl]-4-quinazolinamine ditosylate monohydrate], the “RH at which the monohydrate becomes the thermodynamically stable form” value in data set [1] (remains stable up through 100% RH, slurry equilibration at 25°C) is recorded as 7 - 15 % RH.

A word on the pIC50: it is the IC50 on a negative log10 scale, so that one unit is a factor of ten. Low readings indicate a high IC50, high ones a low IC50. For orientation: IC50 means the concentration that inhibits the measured activity by half.
